This is an account of results in ChEMBL document CHEMBL1201862, “PubChem BioAssay data set” (2004).

Structures are written as SMILES.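 Growth conditions: 96-well plates. Treatment: test compound, 48 hours, 5 concentrations. Analysis: linear interpolation between bracketing concentrations; unreached endpoints set to highest concentration. The concentration for 50% growth inhibition is given as GI50.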 Activity calls are given as the source filed them. Cut-off read from the data, not from the text of the source: active = GI50 up to about 1.1 µM and inactive = higher.

Experiment in all cases: DTP human tumour cell line panel, 48 h
Experiment [1] has as its system A498.
Experiment [2] concerns CCRF-CEM.
For experiment [3], the system named is COLO 205.
In experiment [4] the test system is HCT-116.
For experiment [5], the system named is K562.
Experiment [6] has as its system KM-20L2.
In experiment [7] the test system is LOX IMVI.
Experiment [8] concerns M14.
Experiment [9] has as its system MOLT-4.
For experiment [10], the system named is Malme-3M.
Experiment [11] has as its system NCI-H23.
The subject of experiment [12] is NCI-H460.
The subject of experiment [13] is OVCAR-5.
Experiment [14] relates to SF-539.
Experiment [15] relates to SK-MEL-5.
The test system of experiment [16] is SNB-19.
Experiment [17] concerns UO-31.

Usually GI50 stands for the concentration giving 50% growth inhibition. For `O=S(=O)(O)C(F)(F)C(F)(F)C(F)(F)C(F)(F)F`, the GI50 in experiment [1] is 43.7 µM (inactive); in experiment [2], > 100 µM (inactive); in [3], > 100 µM (inactive); in [4], > 100 µM (inactive); in experiment [5], > 100 µM (inactive); in experiment [6], > 100 µM (inactive). The GI50 in [7], in [8], in [9], in experiment [10], in experiment [11] and in experiment [12] was > 100 µM (inactive) throughout. Besides, the GI50 in experiment [13], in experiment [14], in experiment [15], in [16] and in experiment [17] was > 100 µM (inactive) throughout.
`O=C1c2ccccc2C2C1N2C(=O)C(F)(F)F` (stereo unspecified): the GI50 in [1] is > 100 µM (inactive); in experiment [2], 25.9 µM (inactive); in [3] it was > 100 µM (inactive); in experiment [4], > 100 µM (inactive); in [5], 44.2 µM (inactive); in experiment [6], > 100 µM (inactive). The GI50 was 49 µM (inactive) in [7]; > 100 µM (inactive) in [8]; > 100 µM (inactive) in [9]; > 100 µM (inactive) in [10]; > 100 µM (inactive) in experiment [11]; > 100 µM (inactive) in [12]. In addition, the GI50 in experiment [13], in experiment [14], in [15], in [16] and in experiment [17] was > 100 µM (inactive) in each case.
For the compound `CC(C)C(=S)N(C)O`, the GI50 in experiment [1] was 19.1 µM (inactive); in experiment [2], 0.502 µM (active); in experiment [3], 0.35 µM (active); in experiment [4] it was 2.29 µM (inactive); in experiment [5], 0.42 µM (active); in experiment [6], 14.5 µM (inactive). Further, the GI50 in experiment [7] was 11.8 µM (inactive); in experiment [8], 21.6 µM (inactive); in experiment [9], 0.809 µM (active); in experiment [10] it was 53.7 µM (inactive); in [11], 29.8 µM (inactive); in [12], 5.69 µM (inactive). The GI50 in experiment [13] is > 65.5 µM (inactive); in experiment [14] it was 25.6 µM (inactive); in experiment [15], 8.02 µM (inactive); in experiment [16], > 29.2 µM (inactive); in experiment [17], 9.64 µM (inactive).
For the compound `CCOC(=O)C[C@@H](C)[C@]1(C(=O)OC)CCCC1=O`, the GI50 in experiment [1] is > 100 µM (inactive); in experiment [2] it was 44.6 µM (inactive); in experiment [3] it was > 51.8 µM (inactive); in experiment [4] it was > 41.1 µM (inactive); in [5], > 100 µM (inactive); in [6] it was > 59.2 µM (inactive). Moreover, the GI50 in [7] is > 47.1 µM (inactive); in experiment [8] it was > 100 µM (inactive); in [9], > 100 µM (inactive); in experiment [10], > 100 µM (inactive); in experiment [11], > 71.9 µM (inactive); in [12] it was > 67 µM (inactive). The GI50 in experiment [13], in experiment [14], in [15], in experiment [16] and in experiment [17] was > 100 µM (inactive) in each case.
With `CCOC(=O)C1=C(OC(OCC)C(CC)[Se]c2ccccc2)CCCC1` (stereo unspecified), the GI50 in [1] is > 100 µM (inactive); in [2], 11.4 µM (inactive); in experiment [3], 34.7 µM (inactive); in [4] it was 17.5 µM (inactive); in experiment [5], 34.2 µM (inactive); in experiment [6] it was 19.8 µM (inactive). Also, the GI50 was 4.54 µM (inactive) in [7]; 15.6 µM (inactive) in experiment [8]; 14.7 µM (inactive) in [9]; 16.9 µM (inactive) in experiment [10]; 10.9 µM (inactive) in experiment [11]; 36.4 µM (inactive) in experiment [12]. For the same compound, the GI50 in experiment [13] is 26.3 µM (inactive); in experiment [14] it was 17.8 µM (inactive); in [15], 12.6 µM (inactive); in experiment [16], 40.6 µM (inactive); in experiment [17] it was 35.3 µM (inactive).
Turning to `CC(=O)O/N=C/c1ncccc1OC(C)=O`, the GI50 in experiment [1], in [2], in experiment [3], in experiment [4], in experiment [5] and in experiment [6] was > 100 µM (inactive) in each case. Besides, the GI50 in experiment [7], in experiment [8], in experiment [9], in experiment [10], in [11] and in experiment [12] was > 100 µM (inactive) throughout. The GI50 in experiment [13], in [14], in experiment [15], in experiment [16] and in experiment [17] was > 100 µM (inactive) throughout.
On to `COc1cc(/C=C2\[C@H]3c4c(c(OC)c(C)c(OC)c4OC)CC(C(=O)N2Cc2ccccc2)N3C)c(OC)c(C)c1OC`, for which the GI50 in experiment [1] is 27 µM (inactive); in experiment [2], 19.1 µM (inactive); in experiment [3], 17.3 µM (inactive); in experiment [4] it was > 100 µM (inactive); in [5] it was 27.6 µM (inactive); in [6], 20.3 µM (inactive). The GI50 is 18.4 µM (inactive) in experiment [7]; 18.1 µM (inactive) in [8]; 19.7 µM (inactive) in experiment [9]; 21.9 µM (inactive) in [10]; 34.3 µM (inactive) in [11]; 16.6 µM (inactive) in [12]. Also, the GI50 in experiment [13] is 20.6 µM (inactive); in [14], 19.3 µM (inactive); in experiment [15] it was 19 µM (inactive); in experiment [16] it was 27.2 µM (inactive); in [17], 19.3 µM (inactive).
For `COC(=O)[C@@H]1C(=O)O[C@@H](c2ccc(OC)c(OC)c2OC)[C@@H]1C(=O)OC.COC(=O)[C@H]1C(=O)O[C@@H](c2ccc(OC)c(OC)c2OC)[C@@H]1C(=O)OC`, the GI50 in experiment [1], in experiment [2], in experiment [3], in [4], in [5] and in experiment [6] was > 100 µM (inactive) each time. Moreover, the GI50 in experiment [7], in experiment [8], in [9], in experiment [10], in experiment [11] and in experiment [12] was > 100 µM (inactive) each time. Moreover, the GI50 in experiment [13], in experiment [14], in experiment [15], in [16] and in [17] was > 100 µM (inactive) each time.
